The text below walks through data of patent US9580426B2, “Compounds that expand hematopoietic stem cells” (Novartis AG, priority 2008, dated 2017).

Counter-ions that a name gives are not always drawn.

In one data set the test system is Primary adult CD34+ human hematopoietic stem cells (HSCs). In words: % CD34+ assay: HSC expansion screen, dose response. It is filed as cell-based.
Conditions: not given
The protocol:
Primary adult CD34^+ human hematopoietic stem cells (HSCs) are cultured and screened to identify compounds of the invention that facilitate HSC expansion. The cells are analyzed for the presence of the desired phenotype (CD34 expression). Compounds of the invention promote HSC expansion in a dose dependent manner.
Culture Medium: StemSpan SFEM medium is serum-free medium (StemCell Technologies, Vancouver, BC) supplemented with the following human recombinant cytokines: thrombopoietin, interleukin-6, Flt-3 ligand, and stem cell factor (all from R&D Systems, Minneapolis, Minn.), each at a final concentration of 50 ng/mL, with vehicle (DMSO) or a compound of the invention.
Human Cell Culture: Fresh human leukophoresed G-CSF mobilized peripheral blood from normal donors, CD34^+ cells from adult bone marrow and cryopreserved human cord blood CD34^+ cells are purchased from AllCells (Berkeley, Calif.). Human CD34^+ cells are enriched from leukophoresed G-CSF mobilized peripheral blood using magnetic cell sorting (MACS, Direct CD34 Progenitor Cell Isolation Kit, Miltenyi Biotec, Bergisch Gladbach, Germany) and cryopreserved. CD34^+ cell purity, checked by flow Cytometry, is higher than 90%. After thawing, the cell viability tested by trypan blue exclusion is higher than 70%. The thawed cells are centrifuged and resuspended with StemSpan medium before being aliquoted for immediate culture. Cells are plated at 10^4 cells/mL in a 384 well plate (Greiner Bio-One, Monroe, N.C.) with 50 μL of medium per well for 7 days. Every 7 days the cells are transferred to larger well plates and fresh medium is added to keep the cell density between 10^4 and 5×10^5 cells/mL. Cells were cultured at 37° C. in 5% CO2. For transplantation, cells were cultured in 75 cm^2 flasks before the cells were transplanted into mice. At a concentration of 1 micromolar, 4-(2-(2-(benzo[b]thiophen-3-yl)-9-isopropyl-9H-purin-6-ylamino)ethyl)phenol (compound 1, table 1; example 1), 4-(2-(2-(benzo[b]thiophen-3-yl)-9-sec-butyl-9H-purin-6-ylamino)ethyl)phenol (compound 2, table 1), and N-(2-(1H-indol-3-yl)ethyl)-2-(benzo[b]thiophen-3-yl)-9-isopropyl-9H-purin-6-amine (compound 9, table 1) each gives rise to a greater than 10-fold increase in the number of CD34^+ CD45RA^− cells derived from 1000 mPB CD34^+ HSCs after 21 days compared to vehicle. Compounds of the invention were assayed in a dose response format (1 nM to 10 μM) to determine the effective concentration that produced the desired effect in 50% of the cells (EC50).
As to `Cc1n[nH]c(C)c1CCCNc1nc(-c2csc3ccccc23)nc2c1ncn2C(C)C` [2-(benzo[b]thiophen-3-yl)-N-(3-(3,5-dimethyl-1H-pyrazol-4-yl)propyl)-9-isopropyl-9H-purin-6-amine], the “activity relative to example 1 (less active)” value is ~20 fold.

Still in this data set, the particulars now being: Homo sapiens, Hematopoietic stem cell; dose response 1 nM to 10 μM; total number and/or percent of CD34+ cells.
Usually EC50 stands for the midpoint of the concentration-response curve. Turning to `Cc1ccc(-c2nc(NCCc3ccc(O)cc3)c3ncn(C(C)C)c3n2)cn1` [Example 144], it took 160 nM to reach a half-maximal effect (EC50).
On the same count and under the same terms, under `CC(C)n1cnc2c(NCCc3ccc(O)cc3)nc(-c3cncc(C(F)(F)F)c3)nc21` [Example 129] stands 120 nM; under `CC(C)n1cnc2c(NCCc3ccc(O)cc3)nc(-n3cnc4ccccc43)nc21` [Example 121], 86 nM; under `CC(C)n1cnc2c(NCCc3c[nH]c4ccc(Cl)cc34)nc(-c3cccnc3)nc21` [Example 148], 750 nM.
Same read-out and setting: under `CCC(C)n1cnc2c(NCCc3c[nH]c4ccccc34)nc(-c3csc4ccccc34)nc21` (centres unmarked) [Example 23] stands 19 nM.
Take `CC(C)n1cnc2c(NCCc3ccc(O)cc3)nc(-c3cccnc3F)nc21` [Example 118]: the EC50 stood at 450 nM.
Still for that read-out and setting: in the case of `N#Cc1cncc(-c2nc(NCCc3ccc(O)cc3)c3ncn(C4COC4)c3n2)c1` [Example 133] it was 180 nM.
With `Oc1ccc(CCNc2nc(-c3csc4ccccc34)nc3c2ncn3[C@H]2CCOC2)cc1` [Example 152], it took 350 nM to reach a half-maximal effect (EC50).
In turn, `CCN(CC)CCOc1ccc2c(CCNc3nc(-c4cncc(F)c4)nc4c3ncn4C(C)C)c[nH]c2c1` [Example 176] showed an EC50 of 1100 nM.
On the same count and under the same terms, in the case of `Cn1cnc2c(NCCc3ccc(O)cc3)nc(-c3csc4ccccc34)nc21` [Example 7] it was 7200 nM; in that of `CC(C)n1cnc2c(NCCCc3cn[nH]c3)nc(-c3csc4ccccc34)nc21` [Example 84], 5400 nM; in that of `COc1cc(CCNc2nc(-c3cccnc3)nc3c2ncn3C(C)C)ccc1O` [Example 60], 3200 nM.
Still for that read-out and setting: under `CC[C@H](C)n1cnc2c(NCCc3c[nH]c4ccccc34)nc(-c3cncc(F)c3)nc21` [Example 132S] stands 2 nM; under `CC(C)n1cnc2c(NCCc3ccc(N)cc3)nc(-c3csc4ccccc34)nc21` [Example 13], 5750 nM; under `CC(C)n1cnc2c(NCCc3c[nH]c4ccc(OC(=O)CCCCCNC(=O)CCCC[C@@H]5SC[C@@H]6NC(=O)N[C@@H]65)cc34)nc(-c3csc4ccccc34)nc21` [Example 210, 3-(2-(2-(benzo[b]thiophen-3-yl)-9-isopropyl-9H-purin-6-ylamino)ethyl)-1H-indol-5-yl 6-(5-((3aS,4S,6aR)-2-oxohexahydro-1H-thieno[3,4-d]imidazol-4-yl)pentanamido)hexanoate], 2100 nM.
The same measure, in the same setting: in the case of `Cc1cc(CCNc2nc(-c3cncc(F)c3)nc3c2ncn3C(C)CO)ccc1O` (centres unmarked) [Example 200] it was 1 nM.

In a further data set the test system is mPB-derived CD34+ cells. In words: Genome-wide transcriptional profiling. Type of data set: cell-based, human. The following applies: 1 μM; 24 hours. The source says: The two genes that were the most highly repressed by treatment with Example 1 (cytochrome P450 1B1 [CYP1B1] and the aryl hydrocarbon receptor repressor [AHRR]) are transcriptionally regulated by the aryl hydrocarbon receptor (AHR). Therefore, compounds of the invention could be acting as an antagonist of AHR signaling.
On to `Cc1n[nH]c(C)c1CCCNc1nc(-c2csc3ccccc23)nc2c1ncn2C(C)C` [2-(benzo[b]thiophen-3-yl)-N-(3-(3,5-dimethyl-1H-pyrazol-4-yl)propyl)-9-isopropyl-9H-purin-6-amine], for which the “down-regulation of 5 genes (most repressed: CYP1B1, AHRR)” value is recorded as “none were significantly affected”.

Still in this data set, the particulars now being: 24 hours.
With `Cc1n[nH]c(C)c1CCCNc1nc(-c2csc3ccccc23)nc2c1ncn2C(C)C` [2-(benzo[b]thiophen-3-yl)-N-(3-(3,5-dimethyl-1H-pyrazol-4-yl)propyl)-9-isopropyl-9H-purin-6-amine], the “up-regulation of 5 genes of >50,000 probe sets” value is “induced to some degree”.

The subject of the next data set is CYP1B1 mRNA in mPB-derived CD34+ cells. The data set can be described thus: TCDD-mediated CYP1B1 mRNA expression by qPCR. Type of data set: cell-based, human. The following applies: 3 nM; vehicle 0.01% toluene. The protocol: Further, the ability of Example 1 to block 2,3,7,8-tetrachlorodibenzo-p-dioxin (TCDD, dioxin)-mediated CYP1B1 mRNA expression by qPCR in mPB-derived CD34^+ cells was determined. Treatment with TCDD (3 nM) caused a 4.5-fold increase in the level of CYP1B1 mRNA compared with the vehicle control (0.01% toluene). […] To determine the effects of Example 1 in AHR transcription the ability of Example 1 to inhibit a dioxin-induced AHR dependent luciferase reporter gene assay was tested.
On the technique in general: In qPCR the cycle at which signal appears reflects the starting amount.
Take `Clc1cc2c(cc1Cl)Oc1cc(Cl)c(Cl)cc1O2` [TCDD, 2,3,7,8-tetrachlorodibenzo-p-dioxin]: the “increase in the level of CYP1B1 mRNA compared with vehicle control” value is on record as 4.5 fold.

In a further data set the test system is mPB-derived CD34+ cell. The data set can be described thus: 7 day culture with AHR antagonists, expansion of CD34+ cells. Type of data set: cell-based, human. The conditions noted are these: 0.75 μM; 7 days. The protocol: To further explore the role of AHR signaling in HSCs two other AHR antagonists (alpha-naphthoflavone and CH-223191) were tested. Both compounds lead to dose dependent increases in the number of CD34^+ cells when cultured with mPB-derived CD34^+ cell for 7 days: inclusion of 1 μM CH223191 afforded a 2.2-fold expansion of CD34^+ cells; 0.75 μM α-naphthoflavone afforded a 1.9-fold expansion of CD34^+ cells while 0.75 μM Example 1 afforded a 3.4-fold expansion of total CD34^+ cells. […] Forty-eight hours following transduction, CD34+GFP^+ cells were purified by cell sorting and the levels of AHR were determined by qPCR. Both AHR targeting shRNAs led to decreases in AHR expression following transduction (81% with sh111 and 51% with sh242). These decreases were not seen in cells lacking GFP or in cells transduced with control virus.
Regarding `O=c1cc(-c2ccccc2)oc2c1ccc1ccccc12` [α-naphthoflavone, alpha-naphthoflavone], the “expansion of CD34+ cells” value is 1.9 fold.

Still in this data set, the particulars now being: 1 μM; 7 days.
For `Cc1ccccc1N=Nc1ccc(NC(=O)c2ccnn2C)c(C)c1` [CH223191, 2-methyl-2H-pyrazole-3-carboxylic acid (2-methyl-4-o-tolylazophenyl)amide], the “expansion of CD34+ cells” value came out at 2.2 fold.

Tested on in the next data set: not listed separately
The data set can be described thus: Water uptake by thermogravimetry after exposure to relative humidity. It is filed as physicochemical. The following applies: 80% rh during 24 hours. The protocol:
Mesylate salt: 4-(2-(2-(benzo[b]thiophen-3-yl)-9-isopropyl-9H-purin-6-ylamino)ethyl)phenol free base (0.60 g; 1.40 mmoles) are dissolved in 12 ml acetone at 50° C. Methanesulfonic acid (0.137 g; 1.40 mmoles) is added drop wise. The crystallization takes place rapidly. The white suspension is allowed to cool over about 30 minutes with cooling to room temperature. The slurry is stirred for 18 hours at room temperature and filtered. The solid is washed with acetone (6 ml) in three portions and dried first for about 3 hours at 50° C./ca. 10 mbar and then for about 16 hours at 80° C./ca. 10 mbar. […] The water uptake was estimated by thermogravimetry after exposure to relative humidity (80% rh) during 24 hours. A water uptake of 0.4% was observed.
As for `CC(C)n1cnc2c(NCCc3ccc(O)cc3)nc(-c3csc4ccccc34)nc21` [Mesylate salt, 4-(2-(2-(benzo[b]thiophen-3-yl)-9-isopropyl-9H-purin-6-ylamino)ethyl)phenol], the water uptake is recorded as 0.4%.
The same measure, in the same setting: under `CC(C)n1cnc2c(NCCc3ccc(O)cc3)nc(-c3csc4ccccc34)nc21` [Besylate salt, 4-(2-(2-(benzo[b]thiophen-3-yl)-9-isopropyl-9H-purin-6-ylamino)ethyl)phenol] stands “about 0.05%”; under `CC(C)n1cnc2c(NCCc3ccc(O)cc3)nc(-c3csc4ccccc34)nc21` [Napadisylate salt, 4-(2-(2-(benzo[b]thiophen-3-yl)-9-isopropyl-9H-purin-6-ylamino)ethyl)phenol], “less than 0.05%”; under `CC(C)n1cnc2c(NCCc3ccc(O)cc3)nc(-c3csc4ccccc34)nc21` [Sulfate salt, 4-(2-(2-(benzo[b]thiophen-3-yl)-9-isopropyl-9H-purin-6-ylamino)ethyl)phenol], 0.2%.
`CC(C)n1cnc2c(NCCc3ccc(O)cc3)nc(-c3csc4ccccc34)nc21` [Hemi-fumarate salt, 4-(2-(2-(benzo[b]thiophen-3-yl)-9-isopropyl-9H-purin-6-ylamino)ethyl)phenol] came in with a water uptake of 0.3%.
Same read-out and setting: in the case of `CC(C)n1cnc2c(NCCc3ccc(O)cc3)nc(-c3csc4ccccc34)nc21` [Hydrobromide salt, 4-(2-(2-(benzo[b]thiophen-3-yl)-9-isopropyl-9H-purin-6-ylamino)ethyl)phenol] it was “No water uptake”.
On the same count and under the same terms, under `CC(C)n1cnc2c(NCCc3ccc(O)cc3)nc(-c3csc4ccccc34)nc21` [Tosylate salt, 4-(2-(2-(benzo[b]thiophen-3-yl)-9-isopropyl-9H-purin-6-ylamino)ethyl)phenol] stands 0.4%; under `CC(C)n1cnc2c(NCCc3ccc(O)cc3)nc(-c3csc4ccccc34)nc21` [Orotate salt, 4-(2-(2-(benzo[b]thiophen-3-yl)-9-isopropyl-9H-purin-6-ylamino)ethyl)phenol], 1.7%.
Same read-out and setting: under `CC(C)n1cnc2c(NCCc3ccc(O)cc3)nc(-c3csc4ccccc34)nc21` [Hydrochloride salt, 4-(2-(2-(benzo[b]thiophen-3-yl)-9-isopropyl-9H-purin-6-ylamino)ethyl)phenol] stands 0.3%; under `CC(C)n1cnc2c(NCCc3ccc(O)cc3)nc(-c3csc4ccccc34)nc21` [Esylate salt, 4-(2-(2-(benzo[b]thiophen-3-yl)-9-isopropyl-9H-purin-6-ylamino)ethyl)phenol], 0.05%.
